Results published in US11266710B2, “Angio-3 for treatment of retinal angiogenic diseases” (SINGAPORE HEALTH SERVICES PTE LTD, priority 2017, dated 2022).
Where no end group is shown, it is not given here. [ ]: non-standard residue; d: D form. hArg = N=C(N)NCCCC[C@H](N)C(=O)O

What was measured:
HRMEC cells [1] = experiment: VEGF induced proliferation of HRMEC cells (Alamar-Blue); assay type: cell-based; settings: 300 μg/ml; 10 ng/ml or 50 ng/ml VEGF165; 3 days
Experimental: 2000 HRMEC cells were seeded in 96-well plates in 100 μl of media and placed in a CO2 incubator at 37° C. To evaluate the effect the compounds have on VEGF-induced HRMEC proliferation, cells were treated with 10 ng/ml VEGF165 or 50 ng/ml VEGF165 in the presence of different concentrations of Angio-3 after serum starved in EBM-2 supplemented with 0.5% FBS overnight. 300 μg/ml Avastin was used as a positive control. Alamar-Blue assay was performed after 3 days of treatment.

HRMEC cells [2] = experiment: HRMEC transwell migration assay; assay type: cell-based; settings: 300 μg/ml; 50 ng/ml VEGF165; overnight
Experimental: Transwell migration assays were performed in a 24-well cells culture plate containing 8.0 μm pore size inserts. HRMEC cells were serum starved overnight prior of assay. The lower chamber were filled with EBM-2, EBM-2 supplemented with 50 ng/ml VEGF165 plus different concentrations of inhibitors. 1×10^5 Cells in EBM-2 were seeded in the upper chamber. Cells were allowed to migrate to the other side of membrane for overnight at 37° C. Cells on top of the membrane were wiped off and cells migrated to the other side were fixed and stained with 0.4% crystal violet. Cell numbers were counted under a 10× objective for 5 randomly selected fields.

[3] = test system: laser-induced CNV in C57/BL6J (B6J) wild type mice; experiment: Laser-induced choroidal neovascularization (CNV) model in mice, area of leakage by FFA; assay type: in vivo; settings: for Area of Leakage (mean) Week 1 / Area of Leakage (mean) Week 4: laser-induced CNV mice; for Area of Leakage (mean) Week 1 / Area of Leakage (mean) Week 4 / choroidal angiogenesis: prevention mode; for % Reduction (area of leakage): vehicle control = 0%; for choroidal angiogenesis: B6J mice, single intravitreal injection at dose 100 ng, 1 g, and 5 μg
Experimental: FIG. 3A is a schematic of the experimental design on the efficacy of Angio-3 in a laser-induced choroidal neovascularization (CNV) model in mice (B6J WT mice). FIG. 3B are FFA images of baseline and at different time points post treatment. IV single injection of 100 μL of Angio-3 (25 mg/Kg Bwt) was given at Day 0 (prevention mode) and 4 days after laser (regression mode) and followed for 10 weeks. FIG. 3C is a graph showing the area of leakage by each eye for various groups. FIG. 3D are graphs of the mean area of leakage of all batches for each group. […] The attenuation retinal vascularization was better than scrambled peptide. n=6 eyes per batch; n=3 batches. Values are expressed as means±s.e.m., **P<0.01, *P<0.05, student's t-test. FIG. 3E is a graph of the result of the Retinal Function Test that measures ERG changes in Angio-3 treated and control.
FIG. 4A is a schematic of the experimental design on the efficacy of Angio-3 by IVT administration. […]
FIG. 11 A are FFA images of baseline and at different time points post treatment. Mice received single IVT injection of Angio-3 (at a dose of 1 μg in 1 μl or 100 ng in 1 μl), and chemically modified Angio-3 peptides Pep-N (at doses of 5 μg in μl; 1 μg in μl; and 100 ng in 1 μl, respectively) and Pep-Q peptides (at doses of 5 μg in μl; 1 μg in μl; and 100 ng in 1 μl, respectively). FIG. 11 B is a graph of the area of leakage by each eye. Single dose attenuates retinal angiogenesis in laser-induced mice CNV model via IVT route till 4 weeks. […] Eylea is the positive control. n=18 eyes per group; Values are expressed as means±s.e.m. n=3 independent experiment, **P<0.01, *P<0.05, student's t-test.
Laser induced choridal neo-vascularization (CNV) in C57/BL6J (B6J) wild type mice (n=90).
In B6J mice, single injection of 100 μl volume at 25 mg/kg Bwt concentration Angio-3 was injected via intravenous (i/v) route and this was tested in both Preventive mode (before laser) and Regression mode (4 days after laser). […]
Angio-3 was also injected via intravitreal (IVT) route, single injection of 1 μl volume at 2 different doses; 1 μg (High dose) and 100 ng (Low dose).
4 laser photocoagulation sites were placed concentrically around the optic disc of both eyes to induce CNVs. A diode laser (810 nm) was used with a relative potency scale of 120 mW for mice and 250 mW for rats, an exposure time of 0.05 s, and a spot size of […]. Laser spots were focused with crystal covers to avoid laser beam dispersion. Bubble formation was confirmed the rupture of Bruch's membrane.
Fundus photography and fundus fluorescein angiography (FFA) was imaged using a MICRON IV fundus camera (Phoenix Laboratories USA). For FFA, animals were intraperitoneally injected with 10% sodium fluorescein at a dose of 0.01 ml per 5-6 gm body weight.
In B6J mice, single intravitreous (IVT) injection of 100 ng, 1 μg, 5 μg PEP-Q, PEP-N (modified Angio-3), Angio-3 and Eylea were executed and this was tested in Prevention mode (before laser) Method of Llser induced CNV model and injection was described as above.

[4] = test system: laser-induced CNV in Cynomolgus monkeys; experiment: Laser-induced CNV model in Cynomolgus monkeys (wet AMD model); assay type: in vivo, Cynomolgus monkey; settings: 2 mg Angio-3, 2 mg and 4 mg PeptideQ, 2 mg Eylea, single IVT
Experimental: FIGS. 25A, 25B, 25C, 25D, 25E, and 25F show the results of testing in a laser-induced chorodial neovascularization (CNV) model in Cynomolgus moneys developed as an experimental model of wet AMD. FIG. 25A is a schematic of the study design. FIG. 25B are representative fundus fluorescein angiography (FFA) images of all groups. FIG. 25C is a graph showing change in mean lesion grade of the eye in monkeys treated with a single dose 2 mg of Angio-3, dose 2 mg of anti-VEGF (Eylea), 2 mg of peptide (Q2) and 4 mg of peptide (Q4) and control. […] FIG. 25E is a graph of laser area quantified from the FFA images by ImageJ software. FIG. 25F are graphs of laser volume quantified from PS-OCT images by ImageJ software.
A laser-induced choroidal neovascularization (CNV) model was developed and validated in Cynomolgus monkeys as experimental model of wet AMD. […] The development of active CNV was assessed by fluorescein angiography, at Day 14 the baseline degree of neovascularization and leakiness were measured and the final fluorescein angiography assessment was performed on Day 28. Leakage area was quantified by ImageJ software. The laser volume was quantified by Spectralis-Heidelberg software using SD-OCT images.

[5] = test system: corneal neovascularization after alkali-burn injury in mice; experiment: Corneal neovascularization after alkali-burn injury in mice; assay type: in vivo, mouse; settings: 1% solution topically 3×/day for 7 days; vs vehicle control
Experimental: Mice were anesthetized with the combination of 80 mg/kg ketamine and 5 mg/kg xylazine. One drop of 1% xylocaine was applied to the corneal surface for local analgesia. Round piece of filter paper, approximately 2 mm in diameter was soaked in a solution of 1 M NaOH. A piece of NaOH soaked filter paper was picked by sterile forceps. NAOH soaked filter paper was placed on the central cornea under microscope to ensure properly placing the filter paper. Left it for 30 sec to generate an acute alkali-burn of approximately 2×2 mm^2 in area. Filter paper was removed and then gently flushed the eye with 10 ml of 1×PBS twice to wash away residual 1 M NaOH. Only one eye of the mouse was injured and the other serving as a control. A drop of 1× Peptide Q (1% solution as test compound) or a vehicle control consisting of PBS was topically applied to the cornea. Repeated application occurred 3×/day for 7 days. At end point, clinical assessment was done as stated below and eyes were enucleated for corneal flat mount.
A daily examination of the mice in a blinded fashion was performed under a surgical microscope and score corneal neo-vascularization (NV) was based on corneal opacity, NV and vessel size. Two observers were scored and record a final score that was the average of the two. Score corneal opacity on a scale of 0-4. […]

Row | Substance | VEGF induced HRMEC proliferation (HRMEC cells [1]) | VEGF induced HRMEC migration (HRMEC cells [2]) | Area of Leakage (mean) Week 1 ([3]; 100 ng single IVT) | Area of Leakage (mean) Week 4 ([3]; 100 ng single IVT) | % Reduction (area of leakage) ([3]; 100 ng single IVT) [%] | Area of Leakage (mean) Week 1 ([3]; 1 μg single IVT) | Area of Leakage (mean) Week 4 ([3]; 1 μg single IVT) | % Reduction (area of leakage) ([3]; 1 μg single IVT) [%] | Area of Leakage (mean) Week 1 ([3]; 5 μg single IVT) | Area of Leakage (mean) Week 4 ([3]; 5 μg single IVT) | % Reduction (area of leakage) ([3]; 5 μg single IVT) [%] | choroidal angiogenesis [3] | comparative efficacy between treatment groups [4] | corneal NV area seven days after alkali-burn injury [5]
1 | bevacizumab [Avastin] | sufficient to inhibit VEGF induce proliferation | completely blocked |  |  |  |  |  |  |  |  |  |  |  | 
2 | Thr Pro His Thr His Gln Xaa Thr Pro Glu, wherein Xaa is homoarginine (TPHTHQ[hArg]TPE) [PEP-Q, chemically modified Angio-3 peptide] |  |  | 9987.09 | 1283.52 | 48.96 | 13444.14 | 1271.30 | 52.36 | 12839.27 | 742.03 | 56.04 | significantly attenuates the choroidal angiogenesis | dose dependent efficacy and higher dose efficacy close to Eylea | significantly reduced corneal NV area
3 | Thr Pro His Thr His Asn Xaa Thr Pro Glu, wherein Xaa is homoarginine (TPHTHN[hArg]TPE) [PEP-N, chemically modified Angio-3 peptide] |  |  | 11287.40 | 2237.13 | 42.00 | 12808.95 | 2402.54 | 43.06 | 8251.43 | 749.71 | 52.73 | significantly attenuates the choroidal angiogenesis |  | 
